Data as given in ChEMBL document CHEMBL4706550, “Design, synthesis and biological activities of piperidine-spirooxadiazole derivatives as α7 nicotinic receptor antagonists” (Eur J Med Chem, 2020).
pIC50: −log10 of the molar value. Activity calls are given as the source filed them. The rule behind the calls is not given here.

Experiments:
[1] = target: T1, Neuronal acetylcholine receptor subunit alpha-7 (Homo sapiens, UniProt P36544); assay: Antagonist activity at human alpha7 nAChR expressed in Xenopus laevis oocytes assessed as inhibition of Ach-induced current at 30 uM measured at holding potential of -90 mV by two electrode voltage-clamp assay relative to control; format: cell-based; conditions: Oocyte
[2] = target: T1, Neuronal acetylcholine receptor subunit alpha-7; assay: Antagonist activity at human alpha7 nAChR expressed in Xenopus laevis oocytes assessed as inhibition of Ach-induced current at 100 uM measured at holding potential of -90 mV by two electrode voltage-clamp assay relative to control; format: cell-based; conditions: Oocyte
[3] = target: T1, Neuronal acetylcholine receptor subunit alpha-7; assay: Antagonist activity at human alpha7 nAChR expressed in Xenopus laevis oocytes assessed as inhibition of Ach-induced current measured at holding potential of -90 mV by two electrode voltage-clamp assay; format: cell-based, Oocyte
[4] = target: T2, Neuronal acetylcholine receptor; alpha4/beta2 (Rattus norvegicus) (UniProt P09483+P12390); assay: Antagonist activity at rat alpha4beta2 nAChR expressed in Xenopus laevis oocytes assessed as effect on nAChR current at 10 uM measured at holding potential of -90 mV by two electrode voltage-clamp assay; format: cell-based; conditions: Oocyte
[5] = target: T3, Neuronal acetylcholine receptor; alpha3/beta4 (Rattus norvegicus) (UniProt P04757+P12392); assay: Antagonist activity at rat alpha3beta4 nAChR expressed in Xenopus laevis oocytes assessed as inhibition of Ach-induced current at 10 uM measured at holding potential of -90 mV by two electrode voltage-clamp assay relative to control; format: cell-based; conditions: Oocyte
[6] = target: T2, Neuronal acetylcholine receptor; alpha4/beta2 (Rattus norvegicus); assay: Antagonist activity at rat alpha4beta2 nAChR expressed in Xenopus laevis oocytes assessed as inhibition of Ach-induced current at 10 uM measured at holding potential of -90 mV by two electrode voltage-clamp assay relative to control; format: cell-based; conditions: Oocyte
[7] = target: T3, Neuronal acetylcholine receptor; alpha3/beta4 (Rattus norvegicus); assay: Antagonist activity at rat alpha3beta4 nAChR expressed in Xenopus laevis oocytes assessed as effect on nAChR current measured at holding potential of -90 mV by two electrode voltage-clamp assay; format: cell-based; conditions: Oocyte, dose 10.0 µM
[8] = Selectivity index, ratio of IC50 for rat alpha4beta2 nAChR expressed in Xenopus laevis oocytes to IC50 for human alpha7 nAChR expressed in Xenopus laevis oocytes; format: cell-based
[9] = target: Neuronal acetylcholine receptor; alpha4/beta2 (Rattus norvegicus, UniProt P09483+P12390); assay: Antagonist activity at rat alpha4beta2 nAChR expressed in Xenopus laevis oocytes assessed as inhibition of Ach-induced current measured at holding potential of -90 mV by two electrode voltage-clamp assay; format: cell-based, Oocyte
Sequence of Neuronal acetylcholine receptor; alpha4/beta2 (P09483 whole entry): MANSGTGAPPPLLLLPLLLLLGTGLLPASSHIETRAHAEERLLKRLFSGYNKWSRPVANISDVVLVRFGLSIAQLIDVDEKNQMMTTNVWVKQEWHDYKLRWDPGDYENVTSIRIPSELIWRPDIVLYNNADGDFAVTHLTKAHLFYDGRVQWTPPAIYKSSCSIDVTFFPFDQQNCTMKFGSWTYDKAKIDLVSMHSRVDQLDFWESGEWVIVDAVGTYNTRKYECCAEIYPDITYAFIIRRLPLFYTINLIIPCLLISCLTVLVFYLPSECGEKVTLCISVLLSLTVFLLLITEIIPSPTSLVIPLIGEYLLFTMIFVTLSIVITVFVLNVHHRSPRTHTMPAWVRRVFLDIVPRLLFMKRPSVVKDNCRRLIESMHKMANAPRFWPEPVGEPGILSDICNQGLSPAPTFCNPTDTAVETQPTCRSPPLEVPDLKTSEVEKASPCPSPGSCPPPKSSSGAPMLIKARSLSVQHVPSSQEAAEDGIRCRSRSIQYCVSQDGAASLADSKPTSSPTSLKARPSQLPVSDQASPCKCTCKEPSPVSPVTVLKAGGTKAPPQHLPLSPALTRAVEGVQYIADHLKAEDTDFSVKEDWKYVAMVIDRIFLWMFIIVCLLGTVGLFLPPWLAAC
Sequence of Neuronal acetylcholine receptor; alpha4/beta2 (P12390 whole entry): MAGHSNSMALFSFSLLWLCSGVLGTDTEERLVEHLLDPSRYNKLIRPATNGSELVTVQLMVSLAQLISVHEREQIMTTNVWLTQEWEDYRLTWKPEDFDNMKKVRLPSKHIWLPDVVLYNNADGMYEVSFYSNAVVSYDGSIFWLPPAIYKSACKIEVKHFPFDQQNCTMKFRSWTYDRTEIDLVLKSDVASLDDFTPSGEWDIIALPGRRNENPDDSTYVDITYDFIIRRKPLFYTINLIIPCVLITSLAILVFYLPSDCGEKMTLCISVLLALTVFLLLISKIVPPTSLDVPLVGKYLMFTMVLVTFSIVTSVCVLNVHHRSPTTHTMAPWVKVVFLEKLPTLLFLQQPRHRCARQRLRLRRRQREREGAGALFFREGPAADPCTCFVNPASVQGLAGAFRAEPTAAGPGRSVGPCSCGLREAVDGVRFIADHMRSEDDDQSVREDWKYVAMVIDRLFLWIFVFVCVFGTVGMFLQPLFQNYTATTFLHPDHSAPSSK

T1 sequence (P36544 whole entry): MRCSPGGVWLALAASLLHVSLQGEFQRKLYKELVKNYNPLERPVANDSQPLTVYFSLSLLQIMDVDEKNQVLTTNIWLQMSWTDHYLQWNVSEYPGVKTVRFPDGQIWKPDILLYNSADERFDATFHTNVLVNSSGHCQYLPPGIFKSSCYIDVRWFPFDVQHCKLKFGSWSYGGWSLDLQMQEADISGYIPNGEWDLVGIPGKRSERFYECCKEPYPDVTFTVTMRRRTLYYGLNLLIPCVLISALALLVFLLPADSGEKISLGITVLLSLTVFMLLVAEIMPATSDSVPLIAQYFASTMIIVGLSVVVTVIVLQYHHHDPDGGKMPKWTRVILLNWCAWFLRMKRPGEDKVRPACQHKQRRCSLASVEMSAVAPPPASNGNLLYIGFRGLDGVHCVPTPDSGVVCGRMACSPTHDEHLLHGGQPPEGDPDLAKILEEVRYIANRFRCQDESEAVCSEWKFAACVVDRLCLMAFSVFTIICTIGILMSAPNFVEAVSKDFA

Row | inhibition [1] | inhibition ([2]; filed as antagonist) [%] | inhibition ([1]; filed as antagonist) [%] | Compound | further results
1 | inactive | 71.4 | – | c1ccc(CN2CCC3(CC2)NC(c2ccc(-c4ccccc4)cc2)=NO3)cc1 | –
2 | inactive | 58.2 | – | COc1cccc(-c2ccc(C3=NOC4(CCN(Cc5ccccc5)CC4)N3)cn2)c1 | –
3 | inactive | – | – | CC(C)c1cccc(-c2ccc(C3=NOC4(CCN(Cc5ccccc5)CC4)N3)cc2)c1 | inhibition [2]: 26.2%
4 | – | 95.6 | 76.9 | COc1cccc(-c2ccc(C3=NOC4(CCN(Cc5ccccc5)CC4)N3)cc2)c1 | –
5 | – | 89.9 | 54.7 | COc1cc(-c2ccc(C3=NOC4(CCN(Cc5ccccc5)CC4)N3)cc2)ccn1 | –
6 | inactive | 72 | – | Cc1ccccc1-c1ccc(C2=NOC3(CCN(Cc4ccccc4)CC3)N2)cc1 | –
7 | inactive | 58.1 | – | CCOC(=O)N1CCC2(CC1)NC(c1ccc(Br)cc1)=NO2 | –
8 | inactive | 68.7 | – | c1ccc(CN2CCC3(CC2)NC(c2ccccn2)=NO3)cc1 | –
9 | inactive | 67 | – | FC(F)(F)c1cccc(-c2ccc(C3=NOC4(CCN(Cc5ccccc5)CC4)N3)cc2)c1 | –
10 | inactive | 42.4 | – | Fc1ccc(-c2ccc(C3=NOC4(CCN(Cc5ccccc5)CC4)N3)cc2)cc1 | –
11 | inactive | 78.2 | – | CN1CCC2(CC1)NC(c1ccc(-c3cccc(N)c3)cc1)=NO2 | –
12 | inactive | – | – | c1cc(CN2CCC3(CC2)NC(c2nccs2)=NO3)ccn1 | inhibition [2]: 18.8%
13 | 39.5% | 81.1 | – | CN(C)c1cccc(-c2ccc(C3=NOC4(CCN(Cc5ccccc5)CC4)N3)cc2)c1 | –
14 | – | 83.9 | 52.8 | Fc1ccc(CN2CCC3(CC2)NC(C2CC2)=NO3)cc1 | –
15 | – | 90.3 | 63.7 | Brc1ccc(C2=NOC3(CCN(Cc4ccccc4)CC3)N2)cn1 | –
16 | inactive | – | – | Cc1ccc(-c2ccc(C3=NOC4(CCN(Cc5ccccc5)CC4)N3)cc2)cc1 | inhibition [2]: 34.9%
17 | inactive | 70.2 | – | c1ccc(C2=NOC3(CCN(Cc4ccccn4)CC3)N2)cc1 | –
18 | – | 93.5 | 60.1 | Nc1cccc(-c2ccc(C3=NOC4(CCN(Cc5ccccc5)CC4)N3)cc2)c1 | –
19 | – | 80.4 | 59 | Oc1cccc(-c2ccc(C3=NOC4(CCN(Cc5ccccc5)CC4)N3)cc2)c1 | –
20 | – | 87.2 | 61.8 | Nc1cccc(-c2ccc(C3=NOC4(CCN(Cc5ccccc5)CC4)N3)cn2)c1 | –
21 | – | 90.7 | 77.4 | Clc1ccc(C2=NOC3(CCN(Cc4ccccc4)CC3)N2)cc1 | –
22 | inactive | 69.8 | – | c1ccc(CN2CCC3(CC2)NC(c2n[nH]c4ccccc24)=NO3)cc1 | –
23 | 37.9% | 80 | – | c1ccc(CN2CCC3(CC2)NC(c2cc4ccccc4cn2)=NO3)nc1 | –
24 | inactive | – | – | FC(F)(F)c1ccc(-c2ccc(C3=NOC4(CCN(Cc5ccccc5)CC4)N3)cc2)cc1 | inhibition [2]: 36.5%

Row | inhibition [1] | inhibition ([2]; filed as antagonist) [%] | inhibition ([1]; filed as antagonist) [%] | Compound | further results
25 | – | 83.9 | 52.2 | c1ccc(CN2CCC3(CC2)NC(C2CC2)=NO3)cc1 | –
26 | – | 98.2 | 70.4 | c1ccc(CN2CCC3(CC2)NC(c2ccccc2)=NO3)cc1 | pIC50 [3]: 4.86
27 | inactive | 79.6 | – | COc1ccc(C2=NOC3(CCN(Cc4ccccc4)CC3)N2)cc1 | –
28 | inactive | 73.5 | – | CC(C)(C)OC(=O)N1CCC2(CC1)NC(c1ccccc1)=NO2 | –
29 | 30% | 80.1 | – | Cc1cccc(-c2ccc(C3=NOC4(CCN(Cc5ccccc5)CC4)N3)cc2)c1 | –
30 | inactive | 75.2 | – | c1ccc(CN2CCC3(CC2)NC(c2ccc(-c4ccncc4)cc2)=NO3)cc1 | –
31 | inactive | 75.1 | – | CCOC(=O)N1CCC2(CC1)NC(c1ccccc1)=NO2 | –
32 | – | 81.1 | 65 | c1ccc(CN2CCC3(CC2)NC(c2ccc(-c4cccnc4)cc2)=NO3)cc1 | –
33 | – | 91.1 | 76.6 | c1ccc(CN2CCC3(CC2)NC(c2cc4ccccc4cn2)=NO3)cc1 | –
34 | – | 93.4 | 86.1 | COc1cc(-c2ccc(C3=NOC4(CCN(C)CC4)N3)cc2)ccn1 | pIC50 [3]: 5.48
35 | inactive | 71.1 | – | c1ccc(CN2CCC3(CC2)NC(c2ccc(-c4cccs4)cc2)=NO3)cc1 | –
36 | – | 83.1 | 65.9 | Fc1cccc(C2=NOC3(CCN(Cc4ccccc4)CC3)N2)c1 | –
37 | inactive | 58.2 | – | c1ccc2cc(C3=NOC4(CCN(Cc5ccncc5)CC4)N3)ncc2c1 | –
38 | – | 94.5 | 65.1 | c1ccc(CN2CCC3(CC2)NC(c2nccs2)=NO3)cc1 | –
39 | inactive | 79.1 | – | COc1ccc(C2=NOC3(CCN(Cc4ccccc4)CC3)N2)c(OC)c1 | –
40 | inactive | 75.4 | – | Cc1cccc(C2=NOC3(CCN(Cc4ccccc4)CC3)N2)c1 | –
41 | – | 91.5 | 90.8 | Brc1ccc(C2=NOC3(CCN(Cc4ccccc4)CC3)N2)cc1 | pIC50 [3]: 5.22
42 | inactive | 74.9 | – | c1ccc(CN2CCC3(CC2)NC(c2cccs2)=NO3)cc1 | –
43 | inactive | 40.5 | – | COc1ccc(-c2ccc(C3=NOC4(CCN(Cc5ccccc5)CC4)N3)cc2)cc1 | –
44 | inactive | 73 | – | COc1cc(OC)cc(-c2ccc(C3=NOC4(CCN(Cc5ccccc5)CC4)N3)cc2)c1 | –
45 | – | 93.2 | 81.3 | COc1cccc(-c2ccc(C3=NOC4(CCN(C)CC4)N3)cc2)c1 | –
46 | inactive | 78.3 | – | Fc1ccc(C2=NOC3(CCN(Cc4ccccc4)CC3)N2)cc1 | –
47 | 39.3% | 80 | – | c1ccc(CN2CCC3(CC2)NC(c2nccs2)=NO3)nc1 | –
48 | inactive | 52.8 | – | Clc1ccc(-c2ccc(C3=NOC4(CCN(Cc5ccccc5)CC4)N3)cc2)cc1 | –

Row | Compound | inhibition [1] | inhibition ([2]; filed as antagonist) [%] | inhibition ([1]; filed as antagonist) [%] | further results
49 | CN1CCC2(CC1)NC(c1ccccc1)=NO2 | – | 96.7 | 90.4 | pIC50 [3]: 5.36
50 | CN1CCC2(CC1)NC(c1ccc(Br)cc1)=NO2 | – | 97.4 | 91.8 | Activity [4]: inactive; pIC50 [3]: 5.27; inhibition [5]: 20%; inhibition [6]: 24%; Activity [7]: inactive; Ratio IC50 [8]: 6; pIC50 [9]: 4.50
51 | CN1CCC2(CC1)NC(c1ccc(Br)nc1)=NO2 | – | 83.4 | 44.1 | –
52 | CN1CCC2(CC1)NC(c1nccs1)=NO2 | – | 87.4 | 69.7 | –
